Results published in ChEMBL document CHEMBL1201862, “PubChem BioAssay data set” (2004).
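Five concentrations, 48 hours, 96-well plates. GI50 is the concentration that inhibits growth by half.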 Calls of active or inactive are those of the source. Cut-off read from the data, not from the text of the source: active = GI50 up to about 1.1 µM and inactive = higher.

Key:
Assay in all cases: DTP human tumour cell line panel, 48 h
HOP-92 = system: HOP-92
SR = system: SR
UACC-62 = system: UACC-62
OVCAR-8 = system: OVCAR-8
HCC 2998 = system: HCC 2998
SK-OV-3 = system: SK-OV-3
NCI-H226 = system: NCI-H226
MDA-N = system: MDA-N
LOX IMVI = system: LOX IMVI
786-0 = system: 786-0
RXF 393 = system: RXF 393
Hs-578T = system: Hs-578T
PC-3 = system: PC-3
SW-620 = system: SW-620
SK-MEL-28 = system: SK-MEL-28
SN12C = system: SN12C
NCI-H460 = system: NCI-H460
NCI-H522 = system: NCI-H522
SF-295 = system: SF-295
BT-549 = system: BT-549

Measured: GI50

COc1ccc(Nc2nc3ccccc3nc2-c2cccs2)cc1OC
inactive: HOP-92 > 10 µM | SR 5.89 µM | UACC-62 > 10 µM | OVCAR-8 > 10 µM | HCC 2998 > 10 µM | SK-OV-3 > 10 µM | NCI-H226 > 10 µM | MDA-N > 10 µM | LOX IMVI > 10 µM | 786-0 > 10 µM | RXF 393 > 10 µM | Hs-578T > 10 µM | PC-3 9.35 µM | SW-620 > 10 µM | SK-MEL-28 > 10 µM | SN12C > 10 µM | NCI-H460 > 10 µM | NCI-H522 > 10 µM | SF-295 > 10 µM

Nc1ncnc2c1cnn2Cc1cn(COCC(O)CO)nn1 (stereo unspecified)
inactive: HOP-92 > 100 µM | UACC-62 > 100 µM | OVCAR-8 > 100 µM | HCC 2998 > 100 µM | BT-549 > 100 µM | SK-OV-3 > 100 µM | MDA-N > 100 µM | LOX IMVI > 100 µM | 786-0 > 100 µM | Hs-578T 14.4 µM | PC-3 > 100 µM | SW-620 > 100 µM | SK-MEL-28 > 100 µM | SN12C > 100 µM | NCI-H522 16.1 µM | SF-295 > 100 µM

O=C1C=C(NCCc2ccc(O)cc2)C(=O)C=C1NCCc1ccc(O)cc1
inactive: HOP-92 71.1 µM | SR > 100 µM | UACC-62 > 100 µM | OVCAR-8 48.8 µM | HCC 2998 > 100 µM | BT-549 > 100 µM | SK-OV-3 54.3 µM | NCI-H226 > 100 µM | LOX IMVI 35.1 µM | 786-0 > 100 µM | RXF 393 > 100 µM | Hs-578T 85.3 µM | PC-3 > 100 µM | SW-620 > 100 µM | SK-MEL-28 > 100 µM | SN12C > 100 µM | NCI-H460 > 100 µM | NCI-H522 > 100 µM | SF-295 > 100 µM

COC(=O)c1cc(NC(=O)c2cc(NC(=O)c3cc([N+](=O)[O-])cn3C)cn2C)cn1C
inactive: HOP-92 14.3 µM | UACC-62 55.6 µM | OVCAR-8 > 100 µM | BT-549 > 100 µM | SK-OV-3 49.4 µM | NCI-H226 > 100 µM | MDA-N > 100 µM | LOX IMVI 56.2 µM | 786-0 > 100 µM | RXF 393 > 100 µM | PC-3 94.2 µM | SW-620 > 100 µM | SK-MEL-28 > 100 µM | SN12C > 100 µM | NCI-H460 40.3 µM | SF-295 89.5 µM

Cc1cc(S(=O)(=O)Nc2nc(N)nc(N3N=CCC3C)n2)c(SCC(=O)O)cc1Cl (stereo unspecified)
inactive: UACC-62 > 10 µM | OVCAR-8 > 10 µM | HCC 2998 > 10 µM | BT-549 > 10 µM | SK-OV-3 > 10 µM | NCI-H226 > 10 µM | MDA-N > 10 µM | LOX IMVI > 10 µM | 786-0 > 10 µM | RXF 393 > 10 µM | Hs-578T > 10 µM | PC-3 > 10 µM | SW-620 > 10 µM | SK-MEL-28 > 10 µM | SN12C > 10 µM | NCI-H460 > 10 µM | NCI-H522 > 10 µM | SF-295 > 10 µM

CCOC(=O)c1cc(-c2cc(OC)c(OC)c([N+](=O)[O-])c2)c([N+](=O)[O-])n1C
inactive: HOP-92 > 10 µM | SR 4.81 µM | UACC-62 3.53 µM | OVCAR-8 > 10 µM | HCC 2998 3.26 µM | BT-549 > 10 µM | NCI-H226 > 10 µM | 786-0 > 10 µM | RXF 393 9.59 µM | Hs-578T 4.21 µM | SN12C 6.7 µM | NCI-H460 3.9 µM | NCI-H522 4.13 µM | SF-295 3.42 µM

CCOC(=O)c1nnsc1NC(=O)Nc1ccc(Cl)cc1
inactive: UACC-62 71 µM | OVCAR-8 18.5 µM | HCC 2998 38.5 µM | BT-549 > 100 µM | NCI-H226 36.6 µM | MDA-N 32.8 µM | 786-0 21.1 µM | RXF 393 > 100 µM | Hs-578T 30.1 µM | PC-3 33 µM | SW-620 > 100 µM | SK-MEL-28 > 100 µM | SN12C 35.2 µM | NCI-H460 7 µM | NCI-H522 15.8 µM

CN1C(=O)C(O)CC1c1cccc(F)c1 (stereo unspecified)
inactive: HOP-92 > 100 µM | SR > 100 µM | UACC-62 > 100 µM | OVCAR-8 > 100 µM | HCC 2998 > 100 µM | BT-549 > 100 µM | SK-OV-3 > 100 µM | NCI-H226 > 100 µM | MDA-N > 100 µM | LOX IMVI > 100 µM | 786-0 > 100 µM | RXF 393 > 100 µM | PC-3 > 100 µM | SW-620 > 100 µM | SK-MEL-28 > 100 µM | SN12C > 100 µM | NCI-H460 > 100 µM | NCI-H522 > 100 µM | SF-295 > 100 µM

CC(=O)Oc1c(N2CCCCC2)c(C(=O)c2ccccc2)c(O)c2ccn(N(C)C)c12
inactive: HOP-92 23.9 µM | UACC-62 15 µM | OVCAR-8 20.7 µM | HCC 2998 18.5 µM | BT-549 20.6 µM | SK-OV-3 20.8 µM | NCI-H226 14.2 µM | MDA-N 17.9 µM | LOX IMVI 14.1 µM | 786-0 17.5 µM | RXF 393 20.7 µM | Hs-578T 28.8 µM | PC-3 10.9 µM | SW-620 17.3 µM | SK-MEL-28 19.1 µM | SN12C 18.5 µM | NCI-H460 21.2 µM | SF-295 15 µM

CCN1CC(C)Cn2c(=O)[nH]c3cc(Br)cc1c32 (stereo unspecified)
inactive: UACC-62 6.97 µM | OVCAR-8 23.7 µM | HCC 2998 32.8 µM | BT-549 4.1 µM | SK-OV-3 27.7 µM | NCI-H226 11.9 µM | MDA-N 4.81 µM | LOX IMVI 21.4 µM | 786-0 22.6 µM | RXF 393 6.9 µM | Hs-578T 11 µM | PC-3 30.9 µM | SW-620 5.01 µM | SK-MEL-28 35.7 µM | SN12C 44.7 µM | NCI-H460 30.6 µM | SF-295 21.1 µM

COc1ccc2c(c1)OCC1Cc3cc4c(cc3OC21)OCO4 (stereo unspecified)
inactive: HOP-92 > 100 µM | SR 40.6 µM | UACC-62 31.3 µM | OVCAR-8 45 µM | HCC 2998 44.6 µM | BT-549 61 µM | SK-OV-3 37.2 µM | NCI-H226 > 100 µM | MDA-N 3.14 µM | LOX IMVI 19.4 µM | 786-0 34.8 µM | PC-3 41.6 µM | SW-620 35.7 µM | SN12C 28.4 µM | NCI-H522 49.2 µM | SF-295 48.5 µM

N#Cc1nc(C(F)(F)F)oc1N
inactive: HOP-92 > 100 µM | SR > 100 µM | UACC-62 > 100 µM | OVCAR-8 > 100 µM | HCC 2998 > 100 µM | SK-OV-3 > 100 µM | NCI-H226 > 100 µM | MDA-N > 100 µM | LOX IMVI > 100 µM | 786-0 > 100 µM | RXF 393 > 100 µM | Hs-578T > 100 µM | PC-3 > 100 µM | SW-620 > 100 µM | SK-MEL-28 > 100 µM | SN12C > 100 µM | NCI-H460 > 100 µM | NCI-H522 66.1 µM | SF-295 > 100 µM
